Key:
[1] = species on record: Mus musculus; assay: Percent analgesia of compound was measured in mice by using tail-flick assay; type: functional
[2] = species on record: Rattus norvegicus; assay: The compound was tested in vitro for the inhibition of [3H]-Naltrexone in rat brain homogenates in the presence of MnCl2 at 10 nM dose.; type: functional
[3] = species on record: Rattus norvegicus; assay: The compound was tested in vitro for the inhibition of [3H]-Naltrexone in rat brain homogenates in the presence of MnCl2 at 4 nM dose.; type: functional
[4] = species on record: Rattus norvegicus; assay: The compound was tested in vitro for the inhibition of [3H]naltrexone in rat brain homogenates in the presence of NaCl and MnCl2 at 10 nM dose.; type: functional, organism-based
[5] = species on record: Rattus norvegicus; assay: The compound was tested in vitro for the inhibition of [3H]naltrexone in rat brain homogenates in the presence of NaCl and MnCl2 at 4 nM dose.; type: functional, organism-based
[6] = species on record: Rattus norvegicus; assay: The compound was tested in vitro for the inhibition of [3H]-Naltrexone in rat brain homogenates in the presence of NaCl at 10 nM dose.; type: functional
[7] = species on record: Rattus norvegicus; assay: The compound was tested in vitro for the inhibition of [3H]naltrexone in rat brain homogenates in the presence of standard at 4 nM dose.; type: functional
[8] = species on record: Rattus norvegicus; assay: Percent decrease in activity for the inhibition of [3H]naltrexone in rat brain homogenates in the presence of MnCl2 at dose of 10 nM compared with that of control (4080+/-138 cpm).; type: functional
[9] = species on record: Rattus norvegicus; assay: Percent decrease in activity for the inhibition of [3H]naltrexone in rat brain homogenates in the presence of MnCl2 at dose of 4 nM compared with that of control (4080+/-138 cpm).; type: functional
[10] = species on record: Rattus norvegicus; assay: Percent decrease in activity for the inhibition of [3H]naltrexone in rat brain homogenates in the presence of NaCl and MnCl2 at dose of 10 nM compared with that of control (5840+/-72 cpm).; type: functional
[11] = species on record: Rattus norvegicus; assay: Percent decrease in activity for the inhibition of [3H]naltrexone in rat brain homogenates in the presence of NaCl and MnCl2 at dose of 4 nM compared with that of control (5840+/-72 cpm).; type: functional
[12] = species on record: Rattus norvegicus; assay: Percent decrease in activity for the inhibition of [3H]naltrexone in rat brain homogenates in the presence of NaCl at dose of 10 nM compared with that of control (6070+/-75 cpm).; type: functional
[13] = species on record: Rattus norvegicus; assay: Percent decrease in activity for the inhibition of [3H]naltrexone in rat brain homogenates in the presence of NaCl at dose of 4 nM compared with that of control (6070+/-75 cpm).; type: functional
[14] = species on record: Rattus norvegicus; assay: Percent decrease in activity for the inhibition of [3H]-Naltrexone in rat brain homogenates in the presence of standard at dose of 10 nM compared with that of control (4930+/-143 cpm).; type: functional
[15] = species on record: Rattus norvegicus; assay: Percent decrease in activity for the inhibition of [3H]naltrexone in rat brain homogenates in the presence of standard at dose of 4 nM compared with that of control (4930+/-143 cpm).; type: functional
[16] = species on record: Rattus norvegicus; assay: The compound was tested in vitro for the inhibition of [3H]naltrexone in rat brain homogenates in the presence of standard at 10 nM dose.; type: functional
[17] = species on record: Rattus norvegicus; assay: The compound was tested in vitro for the inhibition of [3H]naltrexone in rat brain homogenates in the presence of MnCl2 at 10 nM dose

| Structure (SMILES) | Analgesia [1] [%] | Binding activity [4] [c.p.m.] | Binding activity [6] [c.p.m.] | Binding activity [7] [c.p.m.] | Decrease [8] [%] | Decrease [10] [%] | Decrease [12] [%] | Decrease [13] [%] | Decrease [14] [%] | Decrease [15] [%] | Binding activity [16] [c.p.m.] | also measured |
| --- | --- | --- | --- | --- | --- | --- | --- | --- | --- | --- | --- | --- |
| N/N=C1/CC[C@@]2(O)[C@H]3Cc4ccc(O)c5c4[C@@]2(CCN3CC2CC2)[C@H]1O5 [NALTREXAZONE] | 0 | 2240 | 2200 | 2980 | 62 | 62 | 64 | 39 | 61 | 39 | 1910 | Binding activity [2]: 1550 c.p.m.; Binding activity [3]: 2570 c.p.m.; Binding activity [5]: 3480 c.p.m.; Decrease [9]: 38%; Decrease [11]: 40% |
| CN1CC[C@]23c4c5ccc(O)c4O[C@H]2C(=O)CC[C@@]3(O)[C@H]1C5 [OXYMORPHONE] | 17 | – | – | – | – | – | – | – | – | – | – | – |
| C=CCN1CC[C@]23c4c5ccc(O)c4O[C@H]2/C(=N\N)CC[C@@]3(O)[C@H]1C5 [NALOXAZONE] | 0 | – | 4640 | – | 23 | – | 24 | – | 11 | – | 4400 | Binding activity [17]: 3140 c.p.m. |
| C=CCN1CC[C@]23c4c5ccc(O)c4O[C@H]2C(=O)CC[C@@]3(O)[C@H]1C5 [NALOXONE] | 54 | – | – | – | – | – | – | – | – | – | – | – |
| O=C1CC[C@@]2(O)[C@H]3Cc4ccc(O)c5c4[C@@]2(CCN3CC2CC2)[C@H]1O5 [NALTREXONE] | 67 | – | – | – | – | – | – | – | – | – | – | – |
| CN1CC[C@]23c4c5ccc(O)c4O[C@H]2/C(=N\N)CC[C@@]3(O)[C@H]1C5 [OXYMORPHAZONE] | 82 | 4560 | 5520 | 4860 | – | 22 | – | 5 | 24 | 2 | 3750 | – |
